This note sets out measurements from US11787799B2 (priority 2015, dated 2023).

“And” between values parts separate entries of the source, which are not always exact repeats. Equal entries are not always repeated.

In series [1] the test system is Enterovirus D68/US/KY/14-18953. Description: Antiviral assay, Enterovirus D68 strain US/KY/14-18953 in RD cells. It counts as cell-based.
The subject of series [2] is Coxsackievirus B5. Briefly: microbe, parasite or virus in culture. Conditions: read-out: EC50 CVB5. It counts as cell-based.
For series [3], the system named is Poliovirus 1. Description: microbe, parasite or virus in culture. It counts as cell-based. The note with it: read-out: EC50 PV1.
The subject of series [4] is Coxsackievirus B4. Description: microbe, parasite or virus in culture. It counts as cell-based. The note with it: read-out: EC50 CVB4.
Series [5] relates to Poliovirus 3. Briefly: microbe, parasite or virus in culture. It counts as cell-based. Conditions: read-out: EC50 PV3.
Series [6] has as its system Echovirus 6. Briefly: microbe, parasite or virus in culture. It counts as cell-based. The note with it: read-out: EC50 ECHO06.
Series [7] relates to LLC cells.
For series [8], the system named is Enterovirus 71. Description: microbe, parasite or virus in culture. It counts as cell-based. The note with it: read-out: EC50 EV71.
Series [9] concerns Enterovirus D68/US/Mo/14-18949. Description: Antiviral assay, Enterovirus D68 strain US/Mo/14-18949 in RD cells. It counts as cell-based.
In series [10] the test system is Enterovirus D68/Fermon. Briefly: Antiviral assay, Enterovirus D68 strain Fermon in RD cells. It counts as cell-based.
Series [11] relates to RD cells.
The subject of series [12] is HeLa-RW cells.
The test system of series [13] is Coxsackievirus B2. Briefly: microbe, parasite or virus in culture. Conditions: read-out: EC50 CVB2. It counts as cell-based.
In series [14] the test system is Coxsackievirus B1. Description: microbe, parasite or virus in culture. The note with it: read-out: EC50 CVB1. It counts as cell-based.
The test system of series [15] is Coxsackievirus B3-H3. Briefly: microbe, parasite or virus in culture. It counts as cell-based. Conditions: read-out: EC50 CVB3-H3.
Series [16] relates to Coxsackievirus A9. Briefly: microbe, parasite or virus in culture. It counts as cell-based. The note with it: read-out: EC50 COX A9.
Series [17] has as its system Echovirus 7. Briefly: microbe, parasite or virus in culture. It counts as cell-based. The note with it: read-out: EC50 ECHO07.

On to `CC(C)n1ncc2c(C(=O)Nc3ccc(F)cc3)cc(-c3ccco3)nc21` [JX-026], for which the concentration giving a half-maximal response (EC50) – broadly, the concentration that produces a half-maximal response – in series [1] was 1.3 ± 0.2 µM; in series [2] it was 3.3 µM; in [3] it was greater than 25 µM; in series [4], 3.3 µM; in series [5] it was greater than 25 µM; in series [6], 2.4 µM. Further, the EC50 came out at 2.6 ± 0.3 µM in series [8]; 1 ± 0.02 µM in series [9]; 1.2 µM in [10]; 3.3 µM in series [13]; 3.3 µM in [14]; 2.4 µM in [15]. Besides, the CC50 in series [7], in series [11] and in series [12] was greater than 200 µM each time.

Regarding `CC(C)n1ncc2c(C(=O)Nc3cc(F)ccc3F)cc(-c3cccs3)nc21` [JX-018], the half-maximal effective concentration (EC50) in [3] was greater than 25 µM; in [5] it was greater than 25 µM; in series [6], 2.6 ± 0.3 µM; in [8] it was 3.5 µM; in [16] it was 2.4 µM; in series [15] it was 2.7 ± 0.4 µM. The CC50 (in general, the concentration that lowers cell viability or growth by half) in [7] is 100 µM; in series [12], greater than 200 µM.

Consider `CC(C)(C)n1ncc2c(C(=O)Nc3ccccc3F)cc(-c3cccs3)nc21` [JX-013], for which the half-maximal effective concentration (EC50) in series [1] came out at 1.8 ± 0.44 µM; in series [9], 1.07 ± 0.23 µM; in series [10], 1.33 ± 0.23 µM. This molecule also gave a cytotoxic concentration (CC50) in series [11] greater than 200 µM.

As to `CC(C)n1ncc2c(C(=O)N3CCc4cc(F)ccc43)cc(-c3cccs3)nc21` [JX-048], the EC50 in [1] is 4.1 ± 1.2 µM; in [2] it was 1.2 µM; in series [3], greater than 10 µM; in [4], 1.2 µM; in series [5], greater than 10 µM; in [6] it was 1.1 µM. The half-maximal effective concentration (EC50) in series [8] is 1.3 ± 0.2 µM; in series [16], 1.2 µM; in series [9], 2.1 ± 0.6 µM; in [10], 2.8 ± 0.45 µM; in series [13], 1.5 µM; in series [14], 1.5 µM. Moreover, the concentration giving a half-maximal response (EC50) in [15] was 1.5 µM. Further, the values for the 50% cytotoxic concentration (CC50) in series [7], in [11] and in series [12] were greater than 200 µM, greater than 200 µM and 20 µM, respectively.

For the molecule `CC(C)n1ncc2c(C(=O)Nc3ccccc3F)cc(-c3nccs3)nc21` [JX-007], the EC50 was 1.2 µM in series [1], 0.66 ± 0.1 µM in series [9] and 0.8 ± 0.28 µM in [10]. This molecule also registered a 50% cytotoxic concentration (CC50) in series [11] greater than 200 µM.

With `CC(C)n1ncc2c(C(=O)Nc3cc(C(N)=O)ccc3F)cc(-c3cccs3)nc21` [JX-073], the concentration giving a half-maximal response (EC50) in series [1] is less than 0.4 µM; in series [3] it was 5 µM; in series [5] it was 5 µM and 6.3 µM; in series [8], 0.5 µM; in series [17], 1.2 µM; in series [10], less than 0.4 µM. In addition, the EC50 in series [13] was 1.2 µM; in series [14], 0.6 µM; in [15], 0.8 µM. The 50% cytotoxic concentration (CC50) came out at 25 µM in [7], 25 µM in [11] and 18.8 µM in [12].

For the molecule `CC(C)n1ncc2c(C(=N)Nc3cccnc3)cc(-c3cccs3)nc21` [JX-065], the EC50 in series [1] stood at 6.3 µM; in series [9] it was 4.7 ± 1.6 µM; in series [10] it was 6.3 µM. Further, the CC50 in series [11] stood at 75 µM.

For the molecule `CC(C)n1ncc2c(C(=O)Nc3ccc(F)cn3)cc(-c3cccs3)nc21` [JX-075], the EC50 in series [1] was less than 0.4 µM; in series [3] it was greater than 10 µM; in series [5] it was greater than 10 µM; in [8], 1.2 µM; in series [9] it was less than 0.4 µM; in series [10], less than 0.4 µM. Further, the EC50 in series [15] was found to be 0.7 ± 0.1 µM. Moreover, the results for the CC50 in series [7], in series [11] and in series [12] were greater than 200 µM, 25 µM and 37.5 µM, respectively.

For `CC(C)n1ncc2c(C(=O)Nc3ccccn3)cc(C3CC3)nc21` [JX-071], the EC50 in [1] is 2.3 µM; in series [3], greater than 10 µM; in series [5], greater than 10 µM; in series [8], 4.7 µM; in [17], 9.4 µM; in series [10], 1.2 µM. Moreover, the concentration giving a half-maximal response (EC50) in series [13] was found to be 6.25 µM; in series [14], 4.7 µM; in series [15] it was 4.7 µM. Moreover, the results for the CC50 in series [7], in [11] and in [12] were 25 µM, 37 µM and 25 µM, respectively.

Consider `CC(C)n1ncc2c(C(=O)Nc3c(F)cc(F)cc3F)cc(-c3cccs3)nc21` [JX-020], for which the EC50 was 2.3 µM in series [2]; greater than 25 µM in [3]; 3.1 µM in series [4]; greater than 25 µM in [5]; 2.4 µM in [6]; 3 µM in series [8]. In addition, the EC50 was 2.4 µM in series [16], 6 µM in series [14] and 1.8 ± 0.7 µM in [15]. Moreover, the CC50 in series [7] and in series [12] was greater than 200 µM in each case.

In the case of `CC(C)n1ncc2c(C(=O)Nc3ccccc3S(N)(=O)=O)cc(-c3cccs3)nc21` [JX-033], the EC50 is 2.7 ± 0.6 µM in series [2]; greater than 25 µM in series [3]; 3.1 ± 0.1 µM in series [4]; greater than 25 µM in series [5]; 2.4 µM in series [6]; 2.5 ± 0.7 µM in series [8]. Further, the 50% effective concentration (EC50) stood at 2.4 µM in series [16], 3.9 ± 1.1 µM in [13], 3.9 ± 1.1 µM in series [14] and 2.6 ± 0.4 µM in [15]. The results for the cytotoxic concentration (CC50) in [7] and in series [12] were 25 µM and 10 µM, respectively.

For `CC(C)n1ncc2c(C(=O)Nc3ccc(F)cc3)cc(C3CC3)nc21` [JX-038], the EC50 in series [3] was greater than 10 µM; in series [5], greater than 10 µM; in [6], 3.9 µM; in [8] it was 3.2 ± 0.1 µM; in series [16], 3 µM; in series [13], 4.7 µM. In addition, the EC50 in [14] and in [15] was 4.7 µM in each case. For the same molecule, the results for the CC50 in [7] and in [12] were 12.5 µM and 10 µM, respectively.

`CC(C)n1ncc2c(C(=O)Nc3ccncc3)cc(-c3cccs3)nc21` [JX-042]: the EC50 in [2] was 0.6 µM; in series [3], greater than 10 µM; in [4], 0.6 µM; in [5], greater than 10 µM; in [6], 0.2 µM; in [8], 0.4 µM. The EC50 stood at 0.5 µM in series [16], 0.6 µM in [13], 0.6 µM in series [14] and 0.6 µM in series [15]. Besides, the CC50 in [7] stood at 6.25 µM; in series [12], 6 µM.

Consider `CC(C)n1ncc2c(C(=O)N3CCc4cccnc43)cc(-c3cccs3)nc21` [JX-076], for which the half-maximal effective concentration (EC50) in [1] is 4.7 µM; in series [3], greater than 10 µM; in [5] it was greater than 10 µM; in series [8], 12.5 µM; in [9], 4 µM; in [10], 4 µM. Moreover, the concentration for a half-maximal effect (EC50) in series [15] stood at 9.4 µM. Also, the cytotoxic concentration (CC50) in series [7] was found to be 50 µM; in series [11], 45 µM; in [12], 37.5 µM.

Consider `CC(C)n1ncc2c(C(=O)Nc3cccc(F)c3F)cc(-c3cccs3)nc21` [JX-019], for which the EC50 was greater than 25 µM in series [3]; greater than 25 µM in series [5]; 2 ± 0.6 µM in series [6]; 3 µM in series [8]; 2.7 ± 0.4 µM in series [15]. Besides, the figures for the half-maximal cytotoxic concentration (CC50) in series [7] and in [12] were 75 µM and greater than 200 µM, respectively.

`CC(C)n1ncc2c(C(=O)Nc3ccncn3)cc(-c3cccs3)nc21` [JX-043]: the EC50 is 0.6 µM in series [2]; greater than 10 µM in [3]; 0.5 µM in series [4]; greater than 10 µM in series [5]; 0.2 µM in series [6]; 0.5 ± 0.1 µM in series [8]. In addition, the EC50 in series [16] is 0.5 µM; in series [17] it was 0.7 µM; in series [13] it was 0.6 µM; in [14], 0.6 µM; in [15] it was 0.6 µM. Further, the results for the CC50 in series [7] and in series [12] were 50 µM and 20 µM, respectively.

Turning to `CC(C)n1ncc2c(C(=O)Nc3cccnc3)cc(-c3ccsc3)nc21` [JX-060], the EC50 in series [2] was 0.6 µM; in [3] it was greater than 10 µM; in series [4], 0.6 µM; in series [5], greater than 10 µM; in series [8] it was 2.4 µM; in [13], 0.6 µM. Further, the 50% effective concentration (EC50) in series [14] and in [15] was 0.6 µM in each case. Further, the figures for the CC50 in series [7] and in [12] were 37 µM and 18 µM, respectively.

Consider `CC(C)n1ncc2c(C(=O)Nc3cc(F)cc(F)c3)cc(-c3cccs3)nc21` [JX-016], for which the EC50 in series [2], in series [3], in series [4], in series [5], in series [13] and in series [14] was greater than 10 µM each time. Further, the concentration for a half-maximal effect (EC50) in series [15] was greater than 10 µM.

Consider `CC(C)n1ncc2c(C(=N)Nc3ccc(F)cc3)cc(-c3cccs3)nc21` [JX-067], for which the EC50 in series [1] is 2.27 ± 0.23 µM; in [9], 1.27 ± 0.12 µM; in [10] it was 1.6 µM. Besides, the cytotoxic concentration (CC50) in series [11] was found to be 100 µM; in series [12] it was 18 µM.

In the case of `CC(C)n1ncc2c(C(=O)Nc3cccc(S(N)(=O)=O)c3)cc(C3CC3)nc21` [JX-055], the EC50 amounted to 0.73 ± 0.12 µM in series [1], 0.4 ± 0.2 µM in series [9] and 0.7 ± 0.2 µM in series [10]. The same molecule gave a CC50 in [11] greater than 200 µM.
